# Data published in ChEMBL document CHEMBL3217615, “Novel 3,5-bis(arylidiene)-4-piperidone based monocarbonyl analogs of curcumin: anticancer activity evaluation and mode of action study” (2014).
# Experiments:
# Assay type in all cases: functional
# SN12C = experiment: Growth inhibition of human SN12C cells assessed as cell growth at 10^-5 M after 48 hrs by sulforhodamine B assay; details: read-out: Activity
# [1] = Growth inhibition of human BT549 cells assessed as cell growth at 10^-7 M after 48 hrs by sulforhodamine B assay; details: BT-549, 48 h, read-out: Activity
# NCI-H522 = experiment: Growth inhibition of human NCI-H522 cells assessed as cell growth at 10^-5 M after 48 hrs by sulforhodamine B assay; details: NCI-H522, 48 h, read-out: Activity
# SR = experiment: Growth inhibition of human SR cells after 48 hrs by sulforhodamine B assay
# COLO 205 [2] = experiment: Induction of apoptosis in human COLO205 cells assessed as caspase 8 activation at 10 uM by FLICA
# [3] = Growth inhibition of human MOLT4 cells assessed as cell growth at 10^-5 M after 48 hrs by sulforhodamine B assay; details: MOLT-4, 48 h, read-out: Activity
# SK-MEL-2 [4] = experiment: Growth inhibition of human SK-MEL-2 cells assessed as cell growth at 10^-5 M after 48 hrs by sulforhodamine B assay; details: SK-MEL-2, 48 h, read-out: Activity
# [5] = Growth inhibition of human HOP92 cells assessed as cell growth at 10^-5 M after 48 hrs by sulforhodamine B assay; details: HOP-92, 48 h, read-out: Activity
# HT-29 = experiment: Growth inhibition of human HT-29 cells after 48 hrs by sulforhodamine B assay; details: HT-29, 48 h
# SNB-19 = experiment: Growth inhibition of human SNB19 cells assessed as cell growth at 10^-5 M after 48 hrs by sulforhodamine B assay; details: SNB-19, 48 h, read-out: Activity
# A549 = experiment: Growth inhibition of human A549/ATCC cells assessed as cell growth at 10^-5 M after 48 hrs by sulforhodamine B assay; details: A549, 48 h, read-out: Activity
# [6] = Growth inhibition of human LOXIMVI cells assessed as cell growth at 10^-5 M after 48 hrs by sulforhodamine B assay; details: LOX IMVI, read-out: Activity
# [7] = Growth inhibition of human SF539 cells assessed as cell growth at 10^-5 M after 48 hrs by sulforhodamine B assay; details: SF-539, 48 h, read-out: Activity
# NCI-H226 = experiment: Growth inhibition of human NCI-H226 cells assessed as cell growth at 10^-4 M after 48 hrs by sulforhodamine B assay; details: NCI-H226, 48 h, read-out: Activity
# [8] = Growth inhibition of human OVCAR8 cells assessed as cell growth at 10^-8 M after 48 hrs by sulforhodamine B assay; details: OVCAR-8, 48 h
# SF-268 = experiment: Growth inhibition of human SF268 cells assessed as cell growth at 10^-6 M after 48 hrs by sulforhodamine B assay; details: SF-268, 48 h, read-out: Activity
# MDA-MB-231 [9] = experiment: Growth inhibition of human MDA-MB-231 cells assessed as cell growth at 10^-7 M after 48 hrs by sulforhodamine B assay; details: MDA-MB-231, 48 h, read-out: Activity
# [10] = Growth inhibition of human UACC62 cells assessed as cell growth at 10^-4 M after 48 hrs by sulforhodamine B assay; details: UACC-62, 48 h, read-out: Activity
# Malme-3M = experiment: Growth inhibition of human MALME-3M cells assessed as cell growth at 10^-5 M after 48 hrs by sulforhodamine B assay; details: read-out: Activity
# [11] = Growth inhibition of human UO31 cells assessed as cell growth at 10^-5 M after 48 hrs by sulforhodamine B assay; details: UO-31, 48 h, read-out: Activity
# K562 [12] = experiment: Growth inhibition of human K562 cells assessed as cell growth at 10^-5 M after 48 hrs by sulforhodamine B assay; details: K562, 48 h, read-out: Activity
# [13] = Growth inhibition of human HCT15 cells assessed as cell growth at 10^-7 M after 48 hrs by sulforhodamine B assay; details: HCT-15, 48 h, read-out: Activity
# NCI-H23 = experiment: Growth inhibition of human NCI-H23 cells assessed as cell growth at 10^-5 M after 48 hrs by sulforhodamine B assay; details: NCI-H23, 48 h, read-out: Activity
# K562 [14] = experiment: Growth inhibition of human K562 cells assessed as cell growth at 10^-8 M after 48 hrs by sulforhodamine B assay; details: K562, 48 h
# ACHN = experiment: Growth inhibition of human ACHN cells assessed as cell growth at 10^-4 M after 48 hrs by sulforhodamine B assay; details: read-out: Activity
# SNB-75 = experiment: Growth inhibition of human SNB75 cells assessed as cell growth at 10^-5 M after 48 hrs by sulforhodamine B assay; details: SNB-75, 48 h, read-out: Activity
# HCT-116 = experiment: Growth inhibition of human HCT116 cells assessed as cell growth at 10^-5 M after 48 hrs by sulforhodamine B assay; details: HCT-116, 48 h, read-out: Activity
# NCI-H460 = experiment: Growth inhibition of human NCI-H460 cells assessed as cell growth at 10^-5 M after 48 hrs by sulforhodamine B assay; details: NCI-H460, 48 h, read-out: Activity
# COLO 205 [15] = experiment: Induction of apoptosis in human COLO205 cells assessed as caspase 3/7 activation at 10 uM by FLICA
# PC-3 = experiment: Growth inhibition of human PC3 cells assessed as cell growth at 10^-5 M after 48 hrs by sulforhodamine B assay; details: PC-3, 48 h, read-out: Activity
# SW-620 = experiment: Growth inhibition of human SW620 cells after 48 hrs by sulforhodamine B assay; details: SW-620, 48 h
# MDA-MB-231 [16] = experiment: Growth inhibition of human MDA-MB-231 cells assessed as cell growth at 10^-5 M after 48 hrs by sulforhodamine B assay; details: MDA-MB-231, 48 h, read-out: Activity
# MCF7 = experiment: Growth inhibition of human MCF7 cells assessed as cell growth at 10^-5 M after 48 hrs by sulforhodamine B assay; details: MCF7, 48 h, read-out: Activity
# SK-MEL-2 [17] = experiment: Growth inhibition of human SK-MEL-2 cells assessed as cell growth at 10^-8 M after 48 hrs by sulforhodamine B assay; details: SK-MEL-2, 48 h
# TK-10 = experiment: Growth inhibition of human TK10 cells assessed as cell growth at 10^-5 M after 48 hrs by sulforhodamine B assay; details: TK-10, 48 h, read-out: Activity
# [18] = read-out: LC50 (the source's name)
structure (smiles),measurement,setting,value
O=C1/C(=C/c2ccc(Cl)cc2Cl)CN(S(=O)(=O)c2ccccc2)C/C1=C\c1ccc(Cl)cc1Cl,growth at 10 µM,SN12C,-47%
same,growth at 0.1 µM,[1],110%
same,growth at 10 µM,NCI-H522,-51%
same,GI50,SR,185 nM
same,TGI,SR,865 nM
same,CC50,SR; [18],> 100000 nM
same,Activity,COLO 205 [2],23%
same,growth at 10 µM,[3],-2%
same,growth at 10 µM,SK-MEL-2 [4],36%
same,growth at 10 µM,[5],-25%
same,GI50,HT-29,293 nM
same,TGI,HT-29,843 nM
same,CC50,HT-29; [18],> 100000 nM
same,growth at 10 µM,SNB-19,-39.1%
same,growth at 10 µM,A549,-43%
same,growth at 10 µM,[6],-58.7%
same,growth at 10 µM,[7],-54.1%
same,growth at 100 µM,NCI-H226,-55%
same,GI50,[8],229 nM
same,LC50,[8],> 100000 nM
same,growth at 0.01 µM,[8]; read-out: Activity,99%
same,TGI,[8]; read-out: pTGI (converted),955 nM
same,growth at 1 µM,SF-268,24%
same,growth at 0.1 µM,MDA-MB-231 [9],99%
same,growth at 100 µM,[10],-71%
same,growth at 10 µM,Malme-3M,-21%
same,growth at 10 µM,[11],-63%
same,growth at 10 µM,K562 [12],0.79%
same,growth at 0.1 µM,[13],90%
same,growth at 10 µM,NCI-H23,-37.6%
same,GI50,K562 [14],347 nM
same,growth at 0.01 µM,K562 [14]; read-out: Activity,102%
same,CC50,K562 [14]; read-out: pLC50 (the source's name) (converted),> 100000 nM
same,TGI,K562 [14]; read-out: pTGI (converted),> 100000 nM
same,growth at 100 µM,ACHN,-17%
same,growth at 10 µM,SNB-75,-6%
same,growth at 10 µM,HCT-116,-84%
same,growth at 10 µM,NCI-H460,-60%
same,Activity,COLO 205 [15],35.5%
same,growth at 10 µM,PC-3,-25%
same,GI50,SW-620,317 nM
same,TGI,SW-620,2790 nM
same,CC50,SW-620; [18],> 100000 nM
same,growth at 10 µM,MDA-MB-231 [16],-52%
same,growth at 10 µM,MCF7,12%
same,GI50,SK-MEL-2 [17],6030 nM
same,LC50,SK-MEL-2 [17],> 100000 nM
same,growth at 0.01 µM,SK-MEL-2 [17]; read-out: Activity,101%
same,TGI,SK-MEL-2 [17]; read-out: pTGI (converted),> 100000 nM
O=C1/C(=C/c2c(Cl)cccc2Cl)CN(S(=O)(=O)c2ccccc2)C/C1=C\c1c(Cl)cccc1Cl,growth at 10 µM,SN12C,86.3%
same,growth at 10 µM,NCI-H522,72.5%
same,growth at 10 µM,[3],52.8%
same,growth at 10 µM,[5],54.5%
same,growth at 10 µM,SNB-19,92.7%
same,growth at 10 µM,A549,67.3%
same,growth at 10 µM,[6],78%
same,growth at 10 µM,[7],99.9%
same,growth at 10 µM,Malme-3M,90%
same,growth at 10 µM,[11],73.7%
same,growth at 10 µM,K562 [12],77.8%
same,growth at 10 µM,TK-10,101%
same,growth at 10 µM,NCI-H23,82.6%
same,growth at 10 µM,SNB-75,66.2%
same,growth at 10 µM,HCT-116,61.7%
same,growth at 10 µM,NCI-H460,74%
same,growth at 10 µM,PC-3,57.5%
same,growth at 10 µM,MDA-MB-231 [16],71.2%
same,growth at 10 µM,MCF7,48.5%
